Data taken from patent US6552196B2, “Quinolone carboxylic acid derivatives” (Dong Wha Pharmaceutical Industrial Co., Ltd., priority 1997, dated 2003).
≈ marks a conversion by molar mass, not a printed value.

Key:
Format in all cases: cell-based
[1] = system: Klebsiella aerogenes 1522E; assay: In vitro antibacterial activity (MIC), agar dilution; details: 2-fold agar dilution, Muller-Hinton agar, 18 hours at 37° C., read-out: minimum inhibitory concentration (MIC)
Experimental: (§1) 10^7 cfu/ml of bacteria were inoculated and cultured for 18 hours at 37° C. and then the antibacterial activities were measured. For the methicillin resistant strains the activities were measured after 48 hours of cultivation at 30° C. Hoechst Standard strains were used for the testings.

[2] = system: Pseudomonas aeruginosa 1771M; assay: as above; details: Pseudomonas aeruginosa, 1771M, 18 h, read-out: minimum inhibitory concentration (MIC)
Experimental: as §1

[3] = system: Staphylococcus aureus 503; assay: as above; details: 2-fold agar dilution, Muller-Hinton agar, 18 hours at 37° C., read-out: minimum inhibitory concentration (MIC)
Experimental: as §1

[4] = system: Klebsiella oxytoca 1082E; assay: as above; details: 2-fold agar dilution, Muller-Hinton agar, 18 hours at 37° C., read-out: minimum inhibitory concentration (MIC)
Experimental: as §1

[5] = system: Salmonella typhimurium; assay: as above; details: Salmonella enterica, 2-fold agar dilution, Muller-Hinton agar, 18 hours at 37° C., read-out: minimum inhibitory concentration (MIC)
Experimental: as §1

[6] = system: Pseudomonas aeruginosa 1771; assay: as above; details: 2-fold agar dilution, Muller-Hinton agar, 18 hours at 37° C., read-out: minimum inhibitory concentration (MIC)
Experimental: as §1

[7] = system: Pseudomonas aeruginosa 9027; assay: as above; details: 2-fold agar dilution, Muller-Hinton agar, 18 hours at 37° C., read-out: minimum inhibitory concentration (MIC)
Experimental: as §1

[8] = system: Esherichia coli DC2; assay: as above; details: 2-fold agar dilution, Muller-Hinton agar, 18 hours at 37° C., read-out: minimum inhibitory concentration (MIC)
Experimental: as §1

[9] = system: Streptococcus pyogens 308A; assay: as above; details: 2-fold agar dilution, Muller-Hinton agar, 18 hours at 37° C., read-out: minimum inhibitory concentration (MIC)
Experimental: as §1

[10] = system: Enterobacter clocae 1321E; assay: as above; details: 2-fold agar dilution, Muller-Hinton agar, 18 hours at 37° C., read-out: minimum inhibitory concentration (MIC)
Experimental: as §1

[11] = system: Pseudomonas aeruginosa 1592E; assay: as above; details: 2-fold agar dilution, Muller-Hinton agar, 18 hours at 37° C., read-out: minimum inhibitory concentration (MIC)
Experimental: as §1

[12] = system: Esherichia coli 078; assay: as above; details: 2-fold agar dilution, Muller-Hinton agar, 18 hours at 37° C., read-out: minimum inhibitory concentration (MIC)
Experimental: as §1

[13] = system: Staphylococcus aureus SG511; assay: as above; details: 2-fold agar dilution, Muller-Hinton agar, 18 hours at 37° C., read-out: minimum inhibitory concentration (MIC)
Experimental: as §1

[14] = system: Streptococcus faecium MD 8b; assay: as above; details: Enterococcus faecium, MD8B, 2-fold agar dilution, Muller-Hinton agar, 18 hours at 37° C., read-out: minimum inhibitory concentration (MIC)
Experimental: as §1

[15] = system: Esherichia coli TEM; assay: as above; details: 2-fold agar dilution, Muller-Hinton agar, 18 hours at 37° C., read-out: minimum inhibitory concentration (MIC)
Experimental: as §1

[16] = system: Esherichia coli DC0; assay: as above; details: 2-fold agar dilution, Muller-Hinton agar, 18 hours at 37° C., read-out: minimum inhibitory concentration (MIC)
Experimental: as §1

[17] = system: Esherichia coli 1507E; assay: as above; details: 2-fold agar dilution, Muller-Hinton agar, 18 hours at 37° C., read-out: minimum inhibitory concentration (MIC)
Experimental: as §1

[18] = system: Staphylococcus aureus 285; assay: as above; details: 2-fold agar dilution, Muller-Hinton agar, 18 hours at 37° C., read-out: minimum inhibitory concentration (MIC)
Experimental: as §1

[19] = system: Enterobacter clocae P99; assay: as above; details: 2-fold agar dilution, Muller-Hinton agar, 18 hours at 37° C., read-out: minimum inhibitory concentration (MIC)
Experimental: as §1

[20] = system: Streptococcus pyogens 77A; assay: as above; details: 2-fold agar dilution, Muller-Hinton agar, 18 hours at 37° C., read-out: minimum inhibitory concentration (MIC)
Experimental: as §1

[21] = system: Staphylococcus aureus 703E; assay: In vitro antibacterial activity against resistant strains (MIC); details: resistant strain Staphylococcus aureus 703E; 2-fold agar dilution; methicillin resistant strains 48 hours at 30° C.; read-out: minimum inhibitory concentration (MIC)
Experimental: as §1

[22] = system: Staphylococcus aureus 208E; assay: as above; details: resistant strain Staphylococcus aureus 208E; 2-fold agar dilution; methicillin resistant strains 48 hours at 30° C.; read-out: minimum inhibitory concentration (MIC)
Experimental: as §1

[23] = system: Staphylococcus aureus 694E; assay: as above; details: resistant strain Staphylococcus aureus 694E; 2-fold agar dilution; methicillin resistant strains 48 hours at 30° C.; read-out: minimum inhibitory concentration (MIC)
Experimental: as §1

[24] = system: Staphylococcus aureus 690E; assay: as above; details: resistant strain Staphylococcus aureus 690E; 2-fold agar dilution; methicillin resistant strains 48 hours at 30° C.; read-out: minimum inhibitory concentration (MIC)
Experimental: as §1

[25] = system: Staphylococcus aureus 697E; assay: as above; details: resistant strain Staphylococcus aureus 697E; 2-fold agar dilution; methicillin resistant strains 48 hours at 30° C.; read-out: minimum inhibitory concentration (MIC)
Experimental: as §1

[26] = system: Staphylococcus aureus 121E; assay: as above; details: resistant strain Staphylococcus aureus 121E; 2-fold agar dilution; methicillin resistant strains 48 hours at 30° C.; read-out: minimum inhibitory concentration (MIC)
Experimental: as §1

[27] = system: Staphylococcus aureus 256E; assay: as above; details: resistant strain Staphylococcus aureus 256E; 2-fold agar dilution; methicillin resistant strains 48 hours at 30° C.; read-out: minimum inhibitory concentration (MIC)
Experimental: as §1

[28] = system: Staphylococcus aureus 88E; assay: as above; details: resistant strain Staphylococcus aureus 88E; 2-fold agar dilution; methicillin resistant strains 48 hours at 30° C.; read-out: minimum inhibitory concentration (MIC)
Experimental: as §1

[29] = system: Staphylococcus aureus 241; assay: as above; details: resistant strain Staphylococcus aureus 241; 2-fold agar dilution; methicillin resistant strains 48 hours at 30° C.; read-out: minimum inhibitory concentration (MIC)
Experimental: as §1

[30] = system: Staphylococcus epidermidis 291; assay: as above; details: resistant strain Staphylococcus epidermidis 291; 2-fold agar dilution; methicillin resistant strains 48 hours at 30° C.; read-out: minimum inhibitory concentration (MIC)
Experimental: as §1

[31] = system: Staphylococcus aureus 303; assay: as above; details: resistant strain Staphylococcus aureus 303; 2-fold agar dilution; methicillin resistant strains 48 hours at 30° C.; read-out: minimum inhibitory concentration (MIC)
Experimental: as §1

[32] = system: Staphylococcus aureus 701E; assay: as above; details: resistant strain Staphylococcus aureus 701E; 2-fold agar dilution; methicillin resistant strains 48 hours at 30° C.; read-out: minimum inhibitory concentration (MIC)
Experimental: as §1

[33] = system: Staphylococcus aureus 695E; assay: as above; details: resistant strain Staphylococcus aureus 695E; 2-fold agar dilution; methicillin resistant strains 48 hours at 30° C.; read-out: minimum inhibitory concentration (MIC)
Experimental: as §1

[34] = system: Staphylococcus aureus 179; assay: as above; details: resistant strain Staphylococcus aureus 179; 2-fold agar dilution; methicillin resistant strains 48 hours at 30° C.; read-out: minimum inhibitory concentration (MIC)
Experimental: as §1

[35] = system: Staphylococcus aureus 693E; assay: as above; details: resistant strain Staphylococcus aureus 693E; 2-fold agar dilution; methicillin resistant strains 48 hours at 30° C.; read-out: minimum inhibitory concentration (MIC)
Experimental: as §1

[36] = system: Staphylococcus aureus 8236; assay: as above; details: resistant strain Staphylococcus aureus 8236; 2-fold agar dilution; methicillin resistant strains 48 hours at 30° C.; read-out: minimum inhibitory concentration (MIC)
Experimental: as §1

[37] = system: Staphylococcus epidermidis 178; assay: as above; details: resistant strain Staphylococcus epidermidis 178; 2-fold agar dilution; methicillin resistant strains 48 hours at 30° C.; read-out: minimum inhibitory concentration (MIC)
Experimental: as §1

[38] = system: Staphylococcus aureus 293; assay: as above; details: resistant strain Staphylococcus aureus 293; 2-fold agar dilution; methicillin resistant strains 48 hours at 30° C.; read-out: minimum inhibitory concentration (MIC)
Experimental: as §1

[39] = system: Staphylococcus aureus 692E; assay: as above; details: resistant strain Staphylococcus aureus 692E; 2-fold agar dilution; methicillin resistant strains 48 hours at 30° C.; read-out: minimum inhibitory concentration (MIC)
Experimental: as §1

Row | Structure (SMILES) | MIC [1] [µg/mL] | MIC [2] [µg/mL] | MIC [3] [µg/mL] | MIC [4] [µg/mL] | MIC [5] [µg/mL] | MIC [6] [µg/mL] | MIC [7] [µg/mL] | MIC [8] [µg/mL] | MIC [9] [µg/mL] | MIC [10] [µg/mL] | MIC [11] [µg/mL] | MIC [12] [µg/mL] | MIC [13] [µg/mL] | MIC [14] [µg/mL] | MIC [15] [µg/mL] | MIC [16] [µg/mL] | MIC [17] [µg/mL] | MIC [18] [µg/mL] | MIC [19] [µg/mL] | MIC [20] [µg/mL] | other results
1 | CON=C1CN(c2cc3c(cc2F)c(=O)c(C(=O)O)cn3C2CC2)CC12CNC2.CS(=O)(=O)O [Example 2, 1-Cyclopropyl-6-fluoro-7-[8-(methoxyimino)-2,6-diazaspiro[3,4]oct-6-yl]-4-oxo-1,4-dihydro-3-quinolinecarboxylic acid methane sulfonate] | 0.098 | 0.391 | 0.049 | 0.007 | 0.025 | 0.391 | 0.781 | 0.013 | 0.195 | 0.025 | 0.391 | 0.025 | 0.013 | 0.098 | 0.049 | 0.198 | 0.049 | 0.049 | 0.049 | 0.007 | –
2 | CON=C1CN(c2c(F)cc3c(=O)c(C(=O)O)cn(C4CC4)c3c2F)CC12CNC2 [Example 3, 1-Cyclopropyl-6,8-difluoro-7-[8-(methoxyimino)-2,6-diazaspiro[3,4]oct-6-yl]-4-oxo-1,4-dihydro-3-quinolinecarboxylic acid] | 0.098 (≈ 0.234 µM) | 0.781 (≈ 1.87 µM) | 0.098 (≈ 0.234 µM) | 0.007 (≈ 0.0167 µM) | 0.025 (≈ 0.0598 µM) | 1.56 (≈ 3.74 µM) | 1.56 (≈ 3.74 µM) | 0.025 (≈ 0.0598 µM) | 0.391 (≈ 0.935 µM) | 0.025 (≈ 0.0598 µM) | 0.781 (≈ 1.87 µM) | 0.098 (≈ 0.234 µM) | 0.025 (≈ 0.0598 µM) | 0.098 (≈ 0.234 µM) | 0.049 (≈ 0.117 µM) | 0.391 (≈ 0.935 µM) | 0.049 (≈ 0.117 µM) | 0.049 (≈ 0.117 µM) | 0.049 (≈ 0.117 µM) | 0.025 (≈ 0.0598 µM) | –
3 | CON=C1CN(c2cc3c(cc2F)c(=O)c(C(=O)O)cn3-c2ccc(F)cc2F)CC12CNC2.CS(=O)(=O)O.CS(=O)(=O)O [Example 6, 1-(2,4-Difluorophenyl)-6-fluoro-7-[8-(methoxyimino)-2,6-diazaspiro[3,4]oct-6-yl]-4-oxo-1,4-dihydro-3-quinolinecarboxylic acid dimethanesulfonate] | 0.391 | 1.56 | 0.049 | 0.013 | 0.049 | 1.56 | 3.12 | 0.098 | 0.195 | 0.098 | 1.56 | 0.049 | 0.049 | 0.195 | 0.195 | 0.781 | 0.195 | 0.098 | 0.098 | 0.013 | –
4 | CON=C1CN(c2nc3c(cc2F)c(=O)c(C(=O)O)cn3C2CC2)CC12CNC2.CS(=O)(=O)O [Example 1, 1-Cyclopropyl-6-fluoro-7-[8-(methoxyimino)-2,6-diazaspiro[3,4]oct-6-yl]-4-oxo-1,4-dihydro[1,8]naphthyridine-3-carboxylic acid methanesulfonate] | 0.049 | 0.391 | 0.025 | 0.004 | 0.013 | 0.391 | 0.781 | – | 0.098 | 0.013 | 0.391 | 0.013 | 0.007 | 0.049 | 0.025 | 0.195 | 0.025 | 0.025 | 0.025 | 0.007 | MIC [21]: 0.049 µg/mL; MIC [22]: 0.049 µg/mL; MIC [23]: 0.049 µg/mL; MIC [24]: 0.025 µg/mL; MIC [25]: 0.013 µg/mL; MIC [26]: 0.049 µg/mL; MIC [27]: 0.025 µg/mL; MIC [28]: 0.049 µg/mL; MIC [29]: 0.781 µg/mL; MIC [30]: 1.56 µg/mL; MIC [31]: 0.781 µg/mL; MIC [32]: 0.049 µg/mL; MIC [33]: 0.049 µg/mL; MIC [34]: 0.781 µg/mL; MIC [35]: 0.049 µg/mL; MIC [36]: 0.781 µg/mL; MIC [37]: 1.56 µg/mL; MIC [38]: 0.781 µg/mL; MIC [39]: 0.025 µg/mL
